Results on four molecules are retold here after ChEMBL document CHEMBL5505979, “Novel aminothiazoximone-corbelled ethoxycarbonylpyrimidones with antibiofilm activity to conquer Gram-negative bacteria through potential multitargeting effects” (Eur J Med Chem, 2024).

In general, MIC refers to the least concentration at which growth counts as inhibited.

Converted amounts (≈) assume the structure as drawn.

Assay type in all cases: functional
Assay [1] has as its system Pseudomonas aeruginosa. The assay is described as follows: Anti-bacterial activity against Pseudomonas aeruginosa ATCC 27853 assessed as inhibition of bacterial growth. The settings on record: Pseudomonas aeruginosa, ATCC 27853; read-out: MIC.
For another assay, the system named is Enterococcus faecalis. The assay can be described thus: Anti-bacterial activity against Enterococcus faecalis V583 assessed as inhibition of bacterial growth.
The test system of assay [2] is Staphylococcus aureus. The assay can be described thus: Anti-bacterial activity against Staphylococcus aureus ATCC 1708 assessed as inhibition of bacterial growth. The settings on record: Staphylococcus aureus, ATCC 1708; read-out: MIC.
Assay [3] has as its system Escherichia coli. The assay can be described thus: Anti-bacterial activity against Escherichia coli JM109 assessed as inhibition of bacterial growth.
Assay [4] has as its system Staphylococcus aureus. The assay can be described thus: Anti-bacterial activity against methicillin-resistant Staphylococcus aureus ATCC 43300 assessed as inhibition of bacterial growth. The settings on record: Staphylococcus aureus, ATCC 43300; read-out: MIC.
Assay [5] has as its system Pseudomonas aeruginosa. The assay is described as follows: Anti-bacterial activity against Pseudomonas aeruginosa ST235 assessed as inhibition of bacterial growth. The settings on record: Pseudomonas aeruginosa, ST235; read-out: MIC.
In assay [6] the test system is Staphylococcus aureus. The assay can be described thus: Anti-bacterial activity against Staphylococcus aureus ATCC 25923 assessed as inhibition of bacterial growth. The settings on record: Staphylococcus aureus, ATCC 25923; read-out: MIC.
Assay [7] relates to Staphylococcus aureus. The assay is described as follows: Anti-bacterial activity against Staphylococcus aureus CMCC (B) 26001 assessed as inhibition of bacterial growth.
A further assay concerns Acinetobacter baumannii. The assay is described as follows: Anti-bacterial activity against Acinetobacter baumannii R674 assessed as inhibition of bacterial growth.
Assay [8] has as its system Staphylococcus aureus. The assay is described as follows: Anti-bacterial activity against Staphylococcus aureus ATCC 29213 assessed as inhibition of bacterial growth. The settings on record: Staphylococcus aureus, ATCC 29213; read-out: MIC.
The subject of assay [9] is Pseudomonas aeruginosa. The assay is described as follows: Anti-bacterial activity against Pseudomonas aeruginosa CMCC (B) 10104 assessed as inhibition of bacterial growth. The settings on record: Pseudomonas aeruginosa, CMCC (B) 10104; read-out: MIC.
The subject of assay [10] is Pseudomonas aeruginosa. The assay is described as follows: Anti-bacterial activity against Pseudomonas aeruginosa ATCC 9027 assessed as inhibition of bacterial growth.
For assay [11], the system named is Staphylococcus aureus. The assay can be described thus: Anti-bacterial activity against Staphylococcus aureus ATCC 12600 assessed as inhibition of bacterial growth. The settings on record: Staphylococcus aureus, ATCC 12600; read-out: MIC.
For assay [12], the system named is Candida albicans. The assay can be described thus: Anti-fungal activity against Candida albicans 90023 assessed as inhibition of fungal growth.
The subject of a further assay is Candida parapsilosis. The assay can be described thus: Anti-fungal activity against Candida parapsilosis assessed as inhibition of fungal growth. The settings on record: Lodderomyces parapsilosis; read-out: MIC.
A further assay concerns Klebsiella pneumoniae. The assay can be described thus: Anti-bacterial activity against Klebsiella pneumoniae KPN325 assessed as inhibition of bacterial growth. The settings on record: Klebsiella pneumoniae, KPN325; read-out: MIC.
Assay [13] relates to Staphylococcus aureus. The assay can be described thus: Anti-bacterial activity against Staphylococcus aureus ATCC 6538 assessed as inhibition of bacterial growth.
The test system of assay [14] is Escherichia coli. The assay is described as follows: Anti-bacterial activity against Escherichia coli ATCC 25922 assessed as inhibition of bacterial growth.
Assay [15] concerns Staphylococcus aureus. The assay can be described thus: Anti-bacterial activity against methicillin-resistant Staphylococcus aureus N315 assessed as inhibition of bacterial growth. The settings on record: Staphylococcus aureus, N315; read-out: MIC.
Assay [16] concerns Pseudomonas aeruginosa. The assay can be described thus: Anti-bacterial activity against Pseudomonas aeruginosa ATCC 15442 assessed as inhibition of bacterial growth. The settings on record: Pseudomonas aeruginosa, ATCC 15442; read-out: MIC.
The subject of assay [17] is Candida albicans. The assay can be described thus: Anti-fungal activity against Candida albicans assessed as inhibition of fungal growth. The settings on record: Candida albicans; read-out: MIC.
A further assay relates to Candida tropicalis. The assay is described as follows: Anti-fungal activity against Candida tropicalis assessed as inhibition of fungal growth. The settings on record: Candida tropicalis; read-out: MIC.
For assay [18], the system named is Staphylococcus aureus. The assay is described as follows: Anti-bacterial activity against Staphylococcus aureus CMCC (B) 26003 assessed as inhibition of bacterial growth.

For `CCCCc1nc(Cl)c(C2NC(=O)NC(CN3CCN(CC(=O)c4ccc(Cl)cc4)CC3)=C2C(=O)OCC)[nH]1` (configuration not stated), the MIC with Pseudomonas aeruginosa [1] is 111 µM (≈ 64.1 µg/mL); with Enterococcus faecalis, 222 µM (≈ 128 µg/mL); in the assay on Staphylococcus aureus [2], 444 µM (≈ 256 µg/mL); in the assay with Escherichia coli [3] it was 222 µM (≈ 128 µg/mL); in the assay with Staphylococcus aureus [4] it was 56 µM (≈ 32.3 µg/mL); in the assay with Pseudomonas aeruginosa [5], 111 µM (≈ 64.1 µg/mL). In addition, the MIC amounted to 222 µM (≈ 128 µg/mL) with Staphylococcus aureus [6]; 28 µM (≈ 16.2 µg/mL) in the assay on Staphylococcus aureus [7]; 111 µM (≈ 64.1 µg/mL) with Acinetobacter baumannii; 56 µM (≈ 32.3 µg/mL) with Staphylococcus aureus [8]; 56 µM (≈ 32.3 µg/mL) in the assay with Pseudomonas aeruginosa [9]; 28 µM (≈ 16.2 µg/mL) with Pseudomonas aeruginosa [10]. The MIC in the assay on Staphylococcus aureus [11] amounted to 56 µM (≈ 32.3 µg/mL); with Candida albicans [12], 14 µM (≈ 8.09 µg/mL); in the assay with Candida parapsilosis, 444 µM (≈ 256 µg/mL); in the assay with Klebsiella pneumoniae it was 222 µM (≈ 128 µg/mL); with Staphylococcus aureus [13], 444 µM (≈ 256 µg/mL); in the assay with Escherichia coli [14] it was 111 µM (≈ 64.1 µg/mL). The MIC with Staphylococcus aureus [15] worked out at 222 µM (≈ 128 µg/mL); with Pseudomonas aeruginosa [16], 111 µM (≈ 64.1 µg/mL); in the assay on Candida albicans [17], 444 µM (≈ 256 µg/mL); in the assay with Candida tropicalis, 444 µM (≈ 256 µg/mL); in the assay on Staphylococcus aureus [18] it was 56 µM (≈ 32.3 µg/mL).
On to `CCOC(=O)C1=C(CN2CCN(C(=O)/C(=N/OC)c3csc(N)n3)CC2)NC(=O)NC1c1ccc(F)cc1F` (configuration not stated), for which the MIC in the assay with Pseudomonas aeruginosa [1] amounted to 57 µM (≈ 32.1 µg/mL); in the assay on Enterococcus faecalis it was 28 µM (≈ 15.8 µg/mL); in the assay with Staphylococcus aureus [2], 57 µM (≈ 32.1 µg/mL); with Escherichia coli [3], 114 µM (≈ 64.2 µg/mL); with Staphylococcus aureus [4], 28 µM (≈ 15.8 µg/mL); in the assay with Pseudomonas aeruginosa [5], 57 µM (≈ 32.1 µg/mL). For the same molecule, the MIC with Staphylococcus aureus [6] turned out to be 28 µM (≈ 15.8 µg/mL); with Staphylococcus aureus [7], 57 µM (≈ 32.1 µg/mL); with Acinetobacter baumannii it was 57 µM (≈ 32.1 µg/mL); in the assay with Staphylococcus aureus [8], 57 µM (≈ 32.1 µg/mL); in the assay with Pseudomonas aeruginosa [9], 114 µM (≈ 64.2 µg/mL); in the assay on Pseudomonas aeruginosa [10] it was 114 µM (≈ 64.2 µg/mL). Moreover, the MIC in the assay with Staphylococcus aureus [11] came out at 57 µM (≈ 32.1 µg/mL); in the assay on Candida albicans [12] it was 15 µM (≈ 8.45 µg/mL); in the assay with Candida parapsilosis, 464 µM (≈ 262 µg/mL); in the assay on Klebsiella pneumoniae, 114 µM (≈ 64.2 µg/mL); in the assay with Staphylococcus aureus [13] it was 57 µM (≈ 32.1 µg/mL); with Escherichia coli [14], 57 µM (≈ 32.1 µg/mL). Further, the MIC worked out at 114 µM (≈ 64.2 µg/mL) in the assay with Staphylococcus aureus [15]; 28 µM (≈ 15.8 µg/mL) with Pseudomonas aeruginosa [16]; 464 µM (≈ 262 µg/mL) in the assay on Candida albicans [17]; 464 µM (≈ 262 µg/mL) in the assay on Candida tropicalis; 114 µM (≈ 64.2 µg/mL) in the assay with Staphylococcus aureus [18].
With `CCOC(=O)C1=C(CN2CCN(C(=O)/C(=N/OC)c3csc(N)n3)CC2)NC(=O)NC1c1ccc(OC)cc1` (configuration not stated), the MIC in the assay with Pseudomonas aeruginosa [1] came out at 230 µM (≈ 128 µg/mL); in the assay with Enterococcus faecalis, 58 µM (≈ 32.3 µg/mL); in the assay on Staphylococcus aureus [2] it was 115 µM (≈ 64.1 µg/mL); in the assay with Escherichia coli [3] it was 115 µM (≈ 64.1 µg/mL); with Staphylococcus aureus [4] it was 115 µM (≈ 64.1 µg/mL); in the assay with Pseudomonas aeruginosa [5], 230 µM (≈ 128 µg/mL). For the same molecule, the minimum inhibitory concentration (MIC) with Staphylococcus aureus [6] worked out at 230 µM (≈ 128 µg/mL); in the assay with Staphylococcus aureus [7], 58 µM (≈ 32.3 µg/mL); in the assay with Acinetobacter baumannii it was 115 µM (≈ 64.1 µg/mL); with Staphylococcus aureus [8] it was 115 µM (≈ 64.1 µg/mL); with Pseudomonas aeruginosa [9] it was 230 µM (≈ 128 µg/mL); in the assay on Pseudomonas aeruginosa [10] it was 230 µM (≈ 128 µg/mL). Moreover, the MIC in the assay with Staphylococcus aureus [11] amounted to 230 µM (≈ 128 µg/mL); with Candida albicans [12] it was 7 µM (≈ 3.9 µg/mL); in the assay with Candida parapsilosis, 470 µM (≈ 262 µg/mL); in the assay with Klebsiella pneumoniae, 230 µM (≈ 128 µg/mL); in the assay on Staphylococcus aureus [13] it was 115 µM (≈ 64.1 µg/mL); in the assay with Escherichia coli [14], 230 µM (≈ 128 µg/mL). In addition, the MIC in the assay on Staphylococcus aureus [15] was 230 µM (≈ 128 µg/mL); in the assay on Pseudomonas aeruginosa [16] it was 230 µM (≈ 128 µg/mL); in the assay with Candida albicans [17], 470 µM (≈ 262 µg/mL); in the assay with Candida tropicalis it was 470 µM (≈ 262 µg/mL); in the assay with Staphylococcus aureus [18], 115 µM (≈ 64.1 µg/mL).
Turning to `CCCCc1nc(Cl)c(C2NC(=O)NC(CN3CCN(CC(=O)c4nccs4)CC3)=C2C(=O)OCC)[nH]1` (configuration not stated), the MIC with Pseudomonas aeruginosa [1] was determined as 58 µM (≈ 31.9 µg/mL); with Enterococcus faecalis, 117 µM (≈ 64.4 µg/mL); in the assay on Staphylococcus aureus [2], 117 µM (≈ 64.4 µg/mL); with Escherichia coli [3] it was 58 µM (≈ 31.9 µg/mL); with Staphylococcus aureus [4], 58 µM (≈ 31.9 µg/mL); in the assay with Pseudomonas aeruginosa [5], 58 µM (≈ 31.9 µg/mL). Moreover, the MIC in the assay with Staphylococcus aureus [6] is 29 µM (≈ 16 µg/mL); with Staphylococcus aureus [7], 15 µM (≈ 8.25 µg/mL); in the assay with Acinetobacter baumannii it was 58 µM (≈ 31.9 µg/mL); in the assay on Staphylococcus aureus [8] it was 58 µM (≈ 31.9 µg/mL); in the assay with Pseudomonas aeruginosa [9] it was 58 µM (≈ 31.9 µg/mL); in the assay with Pseudomonas aeruginosa [10], 58 µM (≈ 31.9 µg/mL). Also, the MIC in the assay on Staphylococcus aureus [11] is 58 µM (≈ 31.9 µg/mL); with Candida albicans [12], 29 µM (≈ 16 µg/mL); in the assay with Candida parapsilosis, 466 µM (≈ 256 µg/mL); with Klebsiella pneumoniae, 117 µM (≈ 64.4 µg/mL); in the assay on Staphylococcus aureus [13], 29 µM (≈ 16 µg/mL); in the assay on Escherichia coli [14], 58 µM (≈ 31.9 µg/mL). Also, the MIC with Staphylococcus aureus [15] was 117 µM (≈ 64.4 µg/mL); in the assay on Pseudomonas aeruginosa [16], 58 µM (≈ 31.9 µg/mL); in the assay with Candida albicans [17], 466 µM (≈ 256 µg/mL); in the assay with Candida tropicalis it was 466 µM (≈ 256 µg/mL); in the assay on Staphylococcus aureus [18], 117 µM (≈ 64.4 µg/mL).
